Patent US9683025B2, “Methods and compositions for treating cancer and inflammatory diseases” (The Regents of the University of Colorado, A Body Corporate, priority 2013, dated 2017)
Where two headings read alike, the source gives them in different places. Where a SMILES comes first, the peptide text is derived from it. Where no end group is shown, it is not given here.

Assays:
CtBP-E1A interaction = CtBP-E1A interaction (Homo sapiens, UniProt Q13363); experiment: CtBP-E1A interaction inhibition (AlphaScreen / fluorescence polarization competition assay); assay type: binding
Method: The ability of peptides to inhibit CtBP binding can be monitored by two biochemical assays. An AlphaScreen assay (Perkin-Elmer) was developed that is capable of detecting the CtBP-E1A interaction. Purified GST-E1A and 6xHis-CtBP are incubated with glutathione-conjugated donor beads and nickel-chelated acceptor beads respectively. The interaction between CtBP and E1A brings the donor and acceptor beads in close proximity, which produces a fluorescence signal after laser excitation and can be detected using the EnVision plate reader. A peptide that inhibits this interaction will limit the proximity of the beads and thus a loss in fluorescence signal will occur. In addition to the alphascreen, a fluorescence polarization based assay with a fluorescein-labeled 14mer E1A peptide ([…] (SEQ ID NO: 1)) was also developed. Purified 6xHis-CtBP is incubated with the fluorescein-labeled E1A peptide and changes in the polarization value of the labeled peptide are detected using the EnVision plate reader. A decrease in peptide binding to CtBP can be detected by an […], and used to monitor peptide inhibition. IC50 values of designed peptides can be determined using either of these assays through the addition of increasing amounts in each well and monitoring the degree of inhibition of the CtBP-E1A interaction.
Multiple amino acid sequences may appear at positions outside the conserved peptide motif. The most frequently occurring amino acids in these positions are used to design the peptides that bind CtBP with the highest affinity. The affinity of these new peptides is compared to the original 14mer E1A peptide (SEQ ID NO:1) by comparing the IC50 of these peptides in inhibiting the CtBP/E1A protein interaction in a competition assay. The peptide identified from phage display that competes with the CtBP/E1A protein interaction better than the original 14mer E1A peptide is selected and conjugated to the cell penetrating peptide of the present invention. Also provided in Table 3 are […] for selected peptides.
The ability of peptides to inhibit CtBP binding can be monitored by two biochemical assays. An AlphaScreen assay (Perkin-Elmer) was developed that is capable of detecting the CtBP-E1A interaction. Purified GST-E1A and 6xHis-CtBP are incubated with glutathione-conjugated donor beads and nickel-chelated acceptor beads respectively. The interaction between CtBP and E1A brings the donor and acceptor beads in close proximity, which produces a fluorescence signal after laser excitation and can be detected using the EnVision plate reader. A peptide that inhibits this interaction will limit the proximity of the beads and thus a loss in fluorescence signal will occur. In addition to the alphascreen, a fluorescence polarization based assay with a fluorescein-labeled 14mer E1A peptide ([…] (SEQ ID NO: 1)) was also developed. Purified 6xHis-CtBP is incubated with the fluorescein-labeled E1A peptide and changes in the polarization value of the labeled peptide are detected using the EnVision plate reader. A decrease in peptide binding to CtBP can be detected by an […], and used to monitor peptide inhibition. IC50 values of designed peptides can be determined using either of these assays through the addition of increasing amounts in each well and monitoring the degree of inhibition of the CtBP-E1A interaction. Also provided in Table 4 are IC50 for selected peptides.

CtBP [1] = target: T1, CtBP (Homo sapiens, UniProt Q13363); experiment: Fluorescence polarization competition of unlabeled peptide with FITC-labeled 14mer peptide; assay type: binding
T1 construct: 6xHis
Method: (§1) Additional peptides were tested for in vitro inhibitory potency (Table 5). For Kd determination, FITC-labeled peptide (FITC-peptide) was incubated with varying concentrations of CtBP. The fluorescence polarization values of the FITC-peptide were measured and plotted against CtBP concentration to determine Kd of the FITC-peptide with CtBP using the Prism program. […] For IC50 determination, a fluorescence polarization assay was utilized. […] Increasing concentrations of unlabeled peptide were added to compete with the FITC-labeled peptide, leading to a decreased fluorescence polarization value.

CtBP [2] = target: T1, CtBP; experiment: Fluorescence polarization Kd determination of FITC-peptide with CtBP; assay type: binding; details: read-out: Kd
Method: as §1

[3] = system: IMQ-based psoriasis model; experiment: IMQ-based psoriasis model; assay type: in vivo, mouse; details: treated mice versus PBS control
Method: To elucidate the molecular mechanisms for the Pep1-E1A blocker, H&E and immunostaining for proliferative and inflammatory markers was performed.

[4] = IC50 value, Table 3, inhibition of CtBP/E1A protein interaction

KETWWETWWTEWSQPKKKRKVLEEPGQPLDLSCKRPRDYKDDDDK [Pep1-E1A-Flag]
IC50 (CtBP-E1A interaction; [4]): 26.6 µM

CC(C)C[C@H](NC(=O)[C@H](CC(=O)O)NC(=O)[C@H](CC(C)C)NC(=O)[C@@H]1CCCN1C(=O)[C@H](CCC(N)=O)NC(=O)CNC(=O)[C@@H]1CCCN1C(=O)[C@@H](N)CCC(=O)O)C(=O)N[C@@H](CO)C(=O)N[C@@H](CS)C(=O)N[C@@H](CCC(N)=O)C(=O)N[C@@H](CCCNC(=N)N)C(=O)N1CCC[C@H]1C(=O)N[C@@H](CCCNC(=N)N)C(=O)O [Peptide K239Q] (H-EPGQPLDLSCQRPR-OH; N-terminus and C-terminus assumed)
IC50 (CtBP-E1A interaction; [4]): 12 µM

EPGQPLSLSCKRPR [SEQ ID NO:135]
IC50 (CtBP [1]; Table 5, 50% reduction of fluorescence polarization value): did not inhibit CtBP

EQTVPVDLSVARPR [SEQ ID NO:132]
Kd (CtBP [2]; Table 5, FITC-peptide with CtBP): 2.2 µM | Kd (CtBP [2]; affinity to CtBP1, Example 12): 2.2 µM

CC(C)C[C@H](NC(=O)[C@H](CCC(=O)O)NC(=O)[C@H](CC(=O)O)NC(=O)[C@H](CC(C)C)NC(=O)[C@@H]1CCCN1C(=O)[C@H](CCC(N)=O)NC(=O)CNC(=O)[C@@H]1CCCN1C(=O)[C@H](CCC(=O)O)NC(=O)[C@H](CCC(=O)O)NC(=O)[C@H](CC(C)C)NC(=O)[C@H](CCC(N)=O)NC(=O)[C@@H]1CCCN1C(=O)[C@@H]1CCCN1C(=O)[C@H](CCCNC(=N)N)NC(=O)[C@H](CCCNC(=N)N)NC(=O)[C@H](CCCNC(=N)N)NC(=O)[C@H](CCC(N)=O)NC(=O)[C@H](CCCNC(=N)N)NC(=O)[C@H](CCCNC(=N)N)NC(=O)[C@H](CCCCN)NC(=O)[C@H](CCCCN)NC(=O)[C@H](CCCNC(=N)N)NC(=O)CN)C(=O)N[C@@H](CS)C(=O)N[C@@H](CCCCN)C(=O)N[C@@H](CCCNC(=N)N)C(=O)N1CCC[C@H]1C(=O)N[C@@H](CCCNC(=N)N)C(=O)N[C@@H](CC(=O)O)C(=O)N[C@@H](Cc1ccc(O)cc1)C(=O)N[C@@H](CCCCN)C(=O)N[C@@H](CC(=O)O)C(=O)N[C@@H](CC(=O)O)C(=O)N[C@@H](CC(=O)O)C(=O)N[C@@H](CC(=O)O)C(=O)N[C@@H](CCCCN)C(=O)O [Tat-E1A-Flag (LS-EL)] (H-GRKKRRQRRRPPQLEEPGQPLDELCKRPRDYKDDDDK-OH)
IC50 (CtBP-E1A interaction; [4]): > 200 µM | IC50 (CtBP-E1A interaction; IC50 value, Table 4, inhibition of CtBP-E1A interaction): > 200 µM

CC(C)C[C@H](NC(=O)[C@H](CC(=O)O)NC(=O)[C@H](CC(C)C)NC(=O)[C@@H]1CCCN1C(=O)CNC(=O)[C@H](CC(=O)O)NC(=O)CNC(=O)CN)C(=O)N[C@@H](CS)C(=O)N[C@@H](CS)C(=O)N[C@@H](CCCNC(=N)N)C(=O)N[C@@H](CCCCN)C(=O)N[C@@H](CCCNC(=N)N)C(=O)N1CCC[C@H]1C(=O)O [SEQ ID NO:133] (H-GGDGPLDLCCRKRP-OH; N-terminus and C-terminus assumed)
IC50 (CtBP [1]): 18.8 µM

CC(C)C[C@H](NC(=O)[C@H](CC(=O)O)NC(=O)[C@H](CC(C)C)NC(=O)[C@@H]1CCCN1C(=O)[C@H](CCC(N)=O)NC(=O)CNC(=O)[C@@H]1CCCN1C(=O)[C@H](CCC(=O)O)NC(=O)[C@H](CCC(=O)O)NC(=O)[C@H](CC(C)C)NC(=O)[C@H](CCC(N)=O)NC(=O)[C@@H]1CCCN1C(=O)[C@@H]1CCCN1C(=O)[C@H](CCCNC(=N)N)NC(=O)[C@H](CCCNC(=N)N)NC(=O)[C@H](CCCNC(=N)N)NC(=O)[C@H](CCC(N)=O)NC(=O)[C@H](CCCNC(=N)N)NC(=O)[C@H](CCCNC(=N)N)NC(=O)[C@H](CCCCN)NC(=O)[C@H](CCCCN)NC(=O)[C@H](CCCNC(=N)N)NC(=O)CN)C(=O)N[C@@H](CO)C(=O)N[C@@H](CS)C(=O)N[C@@H](CCCCN)C(=O)N[C@@H](CCCNC(=N)N)C(=O)N1CCC[C@H]1C(=O)N[C@@H](CCCNC(=N)N)C(=O)N[C@@H](CC(=O)O)C(=O)N[C@@H](Cc1ccc(O)cc1)C(=O)N[C@@H](CCCCN)C(=O)N[C@@H](CC(=O)O)C(=O)N[C@@H](CC(=O)O)C(=O)N[C@@H](CC(=O)O)C(=O)N[C@@H](CC(=O)O)C(=O)N[C@@H](CCCCN)C(=O)O [Tat-E1A fusion] (H-GRKKRRQRRRPPQLEEPGQPLDLSCKRPRDYKDDDDK-OH; N-terminus and C-terminus assumed)
IC50 (CtBP-E1A interaction; IC50 of inhibition of the CtBP/E1A interaction, FIG. 3, peptide purified from E. coli): ~7.7 µM | IC50 (CtBP-E1A interaction; [4]): 1.7 µM

CC(C)C[C@H](NC(=O)[C@H](CC(N)=O)NC(=O)[C@H](CC(C)C)NC(=O)[C@@H]1CCCN1C(=O)[C@H](CCC(=O)O)NC(=O)[C@H](CC(=O)O)NC(=O)[C@@H](NC(=O)[C@@H]1CCCN1)[C@@H](C)O)C(=O)N[C@@H](CO)C(=O)N[C@@H](CC(C)C)C(=O)N[C@@H](CCCCN)C(=O)N[C@@H](CCCNC(=N)N)C(=O)N1CCC[C@H]1C(=O)N[C@@H](CCCNC(=N)N)C(=O)O [SEQ ID NO:134] (H-PTDEPLNLSLKRPR-OH; N-terminus and C-terminus assumed)
IC50 (CtBP [1]): 4.4 µM

CC(C)C[C@H](NC(=O)[C@H](CC(=O)O)NC(=O)[C@H](CC(C)C)NC(=O)[C@@H]1CCCN1C(=O)[C@H](CCC(N)=O)NC(=O)CNC(=O)[C@@H]1CCCN1C(=O)[C@@H](N)CCC(=O)O)C(=O)N[C@@H](CO)C(=O)N[C@@H](CS)C(=O)N[C@@H](C)C(=O)N[C@@H](CCCNC(=N)N)C(=O)N1CCC[C@H]1C(=O)N[C@@H](CCCNC(=N)N)C(=O)O [Peptide K239A] (H-EPGQPLDLSCARPR-OH; N-terminus and C-terminus assumed)
IC50 (CtBP-E1A interaction; [4]): 21.9 µM

CC(C)C[C@H](NC(=O)[C@H](CC(=O)O)NC(=O)[C@H](CC(C)C)NC(=O)[C@@H]1CCCN1C(=O)[C@H](CCC(N)=O)NC(=O)CNC(=O)[C@@H]1CCCN1C(=O)[C@H](CCC(=O)O)NC(=O)[C@H](CCC(=O)O)NC(=O)[C@H](CC(C)C)NC(=O)[C@H](CCC(N)=O)NC(=O)[C@@H]1CCCN1C(=O)[C@@H]1CCCN1C(=O)[C@H](CCCNC(=N)N)NC(=O)[C@H](CCCNC(=N)N)NC(=O)[C@H](CCCNC(=N)N)NC(=O)[C@H](CCC(N)=O)NC(=O)[C@H](CCCNC(=N)N)NC(=O)[C@H](CCCNC(=N)N)NC(=O)[C@H](CCCCN)NC(=O)[C@H](CCCCN)NC(=O)[C@H](CCCNC(=N)N)NC(=O)CN)C(=O)N[C@@H](CO)C(=O)N[C@@H](CS)C(=O)N[C@@H](CCC(N)=O)C(=O)N[C@@H](CCCNC(=N)N)C(=O)N1CCC[C@H]1C(=O)N[C@@H](CCCNC(=N)N)C(=O)N[C@@H](CC(=O)O)C(=O)N[C@@H](Cc1ccc(O)cc1)C(=O)N[C@@H](CCCCN)C(=O)N[C@@H](CC(=O)O)C(=O)N[C@@H](CC(=O)O)C(=O)N[C@@H](CC(=O)O)C(=O)N[C@@H](CC(=O)O)C(=O)N[C@@H](CCCCN)C(=O)O [Tat-E1A-Flag (K239Q)] (H-GRKKRRQRRRPPQLEEPGQPLDLSCQRPRDYKDDDDK-OH; N-terminus and C-terminus assumed)
IC50 (CtBP-E1A interaction; [4]): 7.7 µM

GSHMKETWWETWWTEWSQPKKKRKVLEEPGQPLDLSCQRPRDYKDDDDK [Pep1-E1A-Flag (K239Q) GSHM v.1]
resistance to IMQ-induction of psoriasis [3]: showed resistance

CC(=O)NCCCC[C@H](NC(=O)[C@H](CS)NC(=O)[C@H](CO)NC(=O)[C@H](CC(C)C)NC(=O)[C@H](CC(=O)O)NC(=O)[C@H](CC(C)C)NC(=O)[C@@H]1CCCN1C(=O)[C@H](CCC(N)=O)NC(=O)CNC(=O)[C@@H]1CCCN1C(=O)[C@@H](N)CCC(=O)O)C(=O)N[C@@H](CCCNC(=N)N)C(=O)N1CCC[C@H]1C(=O)N[C@@H](CCCNC(=N)N)C(=O)O [K239-Acetylated] (H-EPGQPLDLSCK(Ac)RPR-OH; N-terminus and C-terminus assumed)
IC50 (CtBP-E1A interaction; [4]): 26.6 µM
